The numbers were not newly measured in patent US20040072789A1, “Veterinary composition for the topical treatment of traumatized or inflamed skin” (priority 2000, published 2004), which cites them from elsewhere.

This data set concerns fungal infections of the skin.

Turning to `COC1=CC(=O)C[C@@H](C)[C@]12Oc1c(Cl)c(OC)cc(OC)c1C2=O` [griseofulvin], the “effect of topical administration on fungal infections of the skin” value was “very limited effect”.
